# In PMC10046961, “High-Throughput Screening Assay for Detecting Drug-Induced Changes in Synchronized Neuronal Oscillations and Potential Seizure Risk Based on Ca^2+ Fluorescence Measurements in Human Induced Pluripotent Stem Cell (hiPSC)-Derived Neuronal 2D and 3D Cultures” (Cells, 2023):
# Like-named read-outs stand apart in the source and are kept apart here. Marks after values point to notes of the source that are not given here.
# What was measured:
# [1] = test system: hiPSC-derived neurons co-cultured with human primary astrocytes in 2D; assay: Ca2+ transient oscillation assay (FDSS), 2D co-culture; assay type: cell-based; conditions: for activation at 3.7 µM / activation at 11.11 µM / activation at 33.33 µM / activation at 100 µM / activation at 0.37 µM / activation at 1.11 µM / activation at 3.33 µM / activation at 10 µM: Homo sapiens, 1 h, 60 min
# In short: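 hiPSC-derived excitatory neurons (CW50065, Quick-Neuron EX-SeV) co-cultured with human primary astrocytes at 4:1 (10,000:2500 cells per well). Cal-520-loaded cells in HBSS with 2 mM CaCl2 and 10 mM HEPES were pretreated with 0.04% DMSO.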
# [2] = test system: hiPSC-derived neurons co-cultured with human primary astrocytes in 3D; assay: Ca2+ transient oscillation assay (FDSS), 3D spheroids; assay type: cell-based; conditions: 60 min
# In short: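 Fura-2 fluorescence was read twice for 20 min each: a baseline 10 min after 0.04% DMSO, and again 60 min after compound addition at nominal final concentration. The 3D co-cultures (1:1 hiPSC neurons from a donor and human astrocytes, 8000 each) matured 5 weeks in BrainPhys medium after a 1-week differentiation.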
# [3] = ref PharmaPendium, cited from earlier work
# [4] = read-out: Area under the curve - 2D Mean
# [5] = read-out: Peak amplitude - 2D Mean
# [6] = read-out: Peak-to-peak interval - 2D Mean
# [7] = Table 1, peak plasma concentration in men, free therapeutic Cmax
structure (smiles),measurement,setting,value
NS(=O)(=O)c1cc2c(cc1Cl)NC(C1CC3C=CC1C3)NS2(=O)=O (stereo not drawn) [Cyclothiazide],"effect on peak number / Ca2+ neuronal oscillations, in words",[1]; 2D format,significantly increased peak number
same,activation at 3.7 µM,[1]; [4],48%
same,activation at 3.7 µM,[1]; read-out: Peak Number—2D Mean,2.7%
same,activation at 3.7 µM,[1]; [5],12.3%
same,activation at 3.7 µM,[1]; read-out: Peak width - 2D Mean,50.8%
same,activation at 3.7 µM,[1]; [6],9.2%
same,activation at 11.11 µM,[1]; [4],18.7%
same,activation at 11.11 µM,[1]; read-out: Peak Number—2D Mean,178%
same,activation at 11.11 µM,[1]; [5],-0.5%
same,activation at 11.11 µM,[1]; read-out: Peak width - 2D Mean,24.5%
same,activation at 11.11 µM,[1]; [6],-53.3%
same,activation at 33.33 µM,[1]; [4],-9.3%
same,activation at 33.33 µM,[1]; read-out: Peak Number—2D Mean,-25.2%
same,activation at 33.33 µM,[1]; [5],-24%
same,activation at 33.33 µM,[1]; read-out: Peak width - 2D Mean,208%
same,activation at 33.33 µM,[1]; [6],0.3%
same,activation at 100 µM,[1]; [4],-53.8%
same,activation at 100 µM,[1]; read-out: Peak Number—2D Mean,-82%
same,activation at 100 µM,[1]; [5],-72.8%
same,activation at 100 µM,[1]; read-out: Peak width - 2D Mean,-17.3%
same,activation at 100 µM,[1]; [6],-70.3%
same,Area under the curve - 3D Mean,[2]; 3.7 µM,135.8 % change from baseline
same,Peak Number—3D Mean,[2]; 3.7 µM,0.0 % change from baseline
same,Peak amplitude - 3D Mean,[2]; 3.7 µM,126.0 % change from baseline
same,Peak width - 3D Mean,[2]; 3.7 µM,0.7 % change from baseline
same,Peak-to-peak interval - 3D Mean,[2]; 3.7 µM,6.7 % change from baseline
same,Area under the curve - 3D Mean,[2]; 11.11 µM,187.3 % change from baseline
same,Peak Number—3D Mean,[2]; 11.11 µM,21.5 % change from baseline
same,Peak amplitude - 3D Mean,[2]; 11.11 µM,139.0 % change from baseline
same,Peak width - 3D Mean,[2]; 11.11 µM,23.6 % change from baseline
same,Peak-to-peak interval - 3D Mean,[2]; 11.11 µM,−14.5 % change from baseline
same,Area under the curve - 3D Mean,[2]; 33.33 µM,245.1 % change from baseline
same,Peak Number—3D Mean,[2]; 33.33 µM,63.6 * % change from baseline
same,Peak amplitude - 3D Mean,[2]; 33.33 µM,113.7 % change from baseline
same,Peak width - 3D Mean,[2]; 33.33 µM,64.7 % change from baseline
same,Peak-to-peak interval - 3D Mean,[2]; 33.33 µM,−30.0 % change from baseline
same,Area under the curve - 3D Mean,[2]; 100 µM,204.6 % change from baseline
same,Peak Number—3D Mean,[2]; 100 µM,102.9 ** % change from baseline
same,Peak amplitude - 3D Mean,[2]; 100 µM,83.6 % change from baseline
same,Peak width - 3D Mean,[2]; 100 µM,80.0 % change from baseline
same,Peak-to-peak interval - 3D Mean,[2]; 100 µM,−49.3 % change from baseline
same,Free Cmax,[3]; [7],30 µM
same,Free Cmax,"[3]; Table 2, highest plasma concentration in humans after the therapeutic dose",30 µM
CCn1cc(C(=O)O)c(=O)c2cc(F)c(N3CCNCC3)nc21 [Enoxacin],activation at 0.37 µM,[1]; [4],25.5%
same,activation at 0.37 µM,[1]; read-out: Peak Number—2D Mean,1.3%
same,activation at 0.37 µM,[1]; [5],7.8%
same,activation at 0.37 µM,[1]; read-out: Peak width - 2D Mean,18.3%
same,activation at 0.37 µM,[1]; [6],18%
same,activation at 1.11 µM,[1]; [4],41%
same,activation at 1.11 µM,[1]; read-out: Peak Number—2D Mean,2.3%
same,activation at 1.11 µM,[1]; [5],5.3%
same,activation at 1.11 µM,[1]; read-out: Peak width - 2D Mean,45.8%
same,activation at 1.11 µM,[1]; [6],1.3%
same,activation at 3.33 µM,[1]; [4],47.3%
same,activation at 3.33 µM,[1]; read-out: Peak Number—2D Mean,5.5%
same,activation at 3.33 µM,[1]; [5],13.5%
same,activation at 3.33 µM,[1]; read-out: Peak width - 2D Mean,39%
same,activation at 3.33 µM,[1]; [6],12.7%
same,activation at 10 µM,[1]; [4],49.3%
same,activation at 10 µM,[1]; read-out: Peak Number—2D Mean,2%
same,activation at 10 µM,[1]; [5],11.3%
same,activation at 10 µM,[1]; read-out: Peak width - 2D Mean,49%
same,activation at 10 µM,[1]; [6],-3%
same,Area under the curve - 3D Mean,[2]; 0.37 µM,115.6 % change from baseline
same,Peak Number—3D Mean,[2]; 0.37 µM,−16.9 % change from baseline
same,Peak amplitude - 3D Mean,[2]; 0.37 µM,106.8 % change from baseline
same,Peak width - 3D Mean,[2]; 0.37 µM,3.2 % change from baseline
same,Peak-to-peak interval - 3D Mean,[2]; 0.37 µM,30.9 % change from baseline
same,Area under the curve - 3D Mean,[2]; 1.11 µM,124.6 % change from baseline
same,Peak Number—3D Mean,[2]; 1.11 µM,5.5 % change from baseline
same,Peak amplitude - 3D Mean,[2]; 1.11 µM,123.3 % change from baseline
same,Peak width - 3D Mean,[2]; 1.11 µM,−2.2 % change from baseline
same,Peak-to-peak interval - 3D Mean,[2]; 1.11 µM,−0.7 % change from baseline
same,Area under the curve - 3D Mean,[2]; 3.33 µM,139.4 % change from baseline
same,Peak Number—3D Mean,[2]; 3.33 µM,13.2 % change from baseline
same,Peak amplitude - 3D Mean,[2]; 3.33 µM,129.6 % change from baseline
same,Peak width - 3D Mean,[2]; 3.33 µM,3.0 % change from baseline
same,Peak-to-peak interval - 3D Mean,[2]; 3.33 µM,−1.3 % change from baseline
same,Area under the curve - 3D Mean,[2]; 10 µM,114.6 % change from baseline
same,Peak Number—3D Mean,[2]; 10 µM,2.2 % change from baseline
same,Peak amplitude - 3D Mean,[2]; 10 µM,116.3 % change from baseline
same,Peak width - 3D Mean,[2]; 10 µM,−1.1 % change from baseline
same,Peak-to-peak interval - 3D Mean,[2]; 10 µM,−1.1 % change from baseline
same,Free Cmax,[3]; [7],1 to 4 µM
